Reference: ChEMBL document CHEMBL4402510, “Caprazamycins: Promising lead structures acting on a novel antibacterial target MraY” (Eur J Med Chem, 2019)
≈ marks a conversion by molar mass, not a printed value.

Key:
Type in all cases: functional
[1] = tested on: Mycobacterium avium subsp. paratuberculosis; test: Antibacterial activity against Mycobacterium avium subsp. paratuberculosis ATCC 43015
[2] = tested on: Mycobacterium tuberculosis; test: Antibacterial activity against Mycobacterium tuberculosis Kurono
Mycolicibacterium vaccae = test: Antibacterial activity against Mycobacterium vaccae ATCC 15483
[3] = tested on: Mycolicibacterium smegmatis; test: Antibacterial activity against Mycobacterium smegmatis ATCC 607
[4] = tested on: Mycobacterium tuberculosis; test: Antibacterial activity against Mycobacterium tuberculosis JCM 6384
Mycolicibacterium phlei = test: Antibacterial activity against Mycobacterium phlei
[5] = Antibacterial activity against Mycobacterium avium subsp. avium ATCC 25291
Bacillus subtilis = test: Antibacterial activity against Bacillus subtilis PCI 219
Staphylococcus aureus [6] = test: Antibacterial activity against Staphylococcus aureus FDA 209P
Streptococcus pneumoniae = test: Antibacterial activity against Streptococcus pneumoniae PCI 602
[7] = tested on: Mycobacterium tuberculosis; test: Antibacterial activity against Mycobacterium tuberculosis H37Rv
Staphylococcus aureus [8] = test: Antibacterial activity against methicillin resistant Staphylococcus aureus MS16526
Staphylococcus aureus [9] = test: Antibacterial activity against methicillin resistant Staphylococcus aureus No. 5
Escherichia coli = test: Antibacterial activity against Escherichia coli K-12
Haemophilus influenzae = test: Antibacterial activity against Haemophilus influenzae ATCC 10211
Enterococcus faecalis [10] = test: Antibacterial activity against Enterococcus faecalis SR7914 (VRE)
Enterococcus faecalis [11] = test: Antibacterial activity against Enterococcus faecalis ATCC 29212

## CCCCCCCCCCNC(=O)C1=CCN(C)[C@@H]([C@H](O[C@@H]2O[C@H](CN)[C@@H](O)[C@H]2O)[C@H]2O[C@@H](n3ccc(=O)[nH]c3=O)[C@H](O)[C@@H]2O)C(=O)N1C
[1]
  MIC: 6.25 µg/mL (≈ 8.97 µM)
[2]
  MIC: 1.56 µg/mL (≈ 2.24 µM)
Mycolicibacterium vaccae
  MIC: 50 µg/mL (≈ 71.8 µM)
[3]
  MIC: 6.25 µg/mL (≈ 8.97 µM)
[4]
  MIC: 0.78 µg/mL (≈ 1.12 µM)
Mycolicibacterium phlei
  MIC: 25 µg/mL (≈ 35.9 µM)
[5]
  MIC: 0.39 µg/mL (≈ 0.56 µM)
Bacillus subtilis
  MIC: > 100 µg/mL
Staphylococcus aureus [6]
  MIC: 0.78 µg/mL (≈ 1.12 µM)
Streptococcus pneumoniae
  MIC: > 100 µg/mL
[7]
  MIC: 1.56 µg/mL (≈ 2.24 µM)
Staphylococcus aureus [8]
  MIC: > 100 µg/mL
Staphylococcus aureus [9]
  MIC: > 100 µg/mL
Escherichia coli
  MIC: > 100 µg/mL

## CN1C(=O)[C@H]([C@H](O[C@@H]2O[C@H](CN)[C@@H](O)[C@H]2O)[C@H]2O[C@@H](n3ccc(=O)[nH]c3=O)[C@H](O)[C@@H]2O)N(C)CC=C1C(=O)NC1CCCCCCCCCCC1
[1]
  MIC: 0.05 µg/mL (≈ 0.0692 µM)
[2]
  MIC: 1.56 µg/mL (≈ 2.16 µM)
Mycolicibacterium vaccae
  MIC: 25 µg/mL (≈ 34.6 µM)
[3]
  MIC: 3.13 µg/mL (≈ 4.33 µM)
[4]
  MIC: < 0.05 µg/mL
Mycolicibacterium phlei
  MIC: 6.25 µg/mL (≈ 8.65 µM)
[5]
  MIC: 3.13 µg/mL (≈ 4.33 µM)
Bacillus subtilis
  MIC: 1.56 µg/mL (≈ 2.16 µM)
Staphylococcus aureus [6]
  MIC: 100 µg/mL (≈ 138 µM)
Streptococcus pneumoniae
  MIC: > 100 µg/mL
[7]
  MIC: 1.56 µg/mL (≈ 2.16 µM)
Staphylococcus aureus [8]
  MIC: > 100 µg/mL
Staphylococcus aureus [9]
  MIC: > 100 µg/mL
Escherichia coli
  MIC: > 100 µg/mL

## CCCCCNC(=O)C1=CCN(C)[C@@H]([C@H](O[C@@H]2O[C@H](CN)[C@@H](O)[C@H]2O)[C@H]2O[C@@H](n3ccc(=O)[nH]c3=O)[C@H](O)[C@@H]2O)C(=O)N1C
[1]
  MIC: 100 µg/mL (≈ 160 µM)
[2]
  MIC: 6.25 µg/mL (≈ 9.97 µM)
Mycolicibacterium vaccae
  MIC: > 100 µg/mL
[3]
  MIC: 100 µg/mL (≈ 160 µM)
[4]
  MIC: 100 µg/mL (≈ 160 µM)
Mycolicibacterium phlei
  MIC: > 100 µg/mL
[5]
  MIC: 100 µg/mL (≈ 160 µM)
Bacillus subtilis
  MIC: > 100 µg/mL
Staphylococcus aureus [6]
  MIC: 25 µg/mL (≈ 39.9 µM)
Streptococcus pneumoniae
  MIC: > 100 µg/mL
[7]
  MIC: 12.5 µg/mL (≈ 19.9 µM)
Staphylococcus aureus [8]
  MIC: > 100 µg/mL
Staphylococcus aureus [9]
  MIC: > 100 µg/mL
Escherichia coli
  MIC: > 100 µg/mL

## CCCCCCCCCCCCCCCNC(=O)C1=CCN(C)[C@@H]([C@H](O[C@@H]2O[C@H](CN)[C@@H](O)[C@H]2O)[C@H]2O[C@@H](n3ccc(=O)[nH]c3=O)[C@H](O)[C@@H]2O)C(=O)N1C
[1]
  MIC: 0.78 µg/mL (≈ 1.02 µM)
[2]
  MIC: 1.56 µg/mL (≈ 2.03 µM)
Mycolicibacterium vaccae
  MIC: 6.25 µg/mL (≈ 8.15 µM)
[3]
  MIC: 1.56 µg/mL (≈ 2.03 µM)
[4]
  MIC: 1.56 µg/mL (≈ 2.03 µM)
Mycolicibacterium phlei
  MIC: 6.25 µg/mL (≈ 8.15 µM)
[5]
  MIC: 3.13 µg/mL (≈ 4.08 µM)
Bacillus subtilis
  MIC: 1.56 µg/mL (≈ 2.03 µM)
Staphylococcus aureus [6]
  MIC: < 0.2 µg/mL
Streptococcus pneumoniae
  MIC: 3.13 µg/mL (≈ 4.08 µM)
[7]
  MIC: 1.56 µg/mL (≈ 2.03 µM)
Staphylococcus aureus [8]
  MIC: 50 µg/mL (≈ 65.2 µM)
Staphylococcus aureus [9]
  MIC: > 100 µg/mL
Escherichia coli
  MIC: 1.56 µg/mL (≈ 2.03 µM)

## CCCCc1ccc(NC(=O)C2=CCN[C@@H]([C@H](O[C@@H]3O[C@H](CN)[C@@H](O)[C@H]3O)[C@H]3O[C@@H](n4ccc(=O)[nH]c4=O)[C@H](O)[C@@H]3O)C(=O)N2C)cc1
[1]
  MIC: 0.39 µg/mL (≈ 0.578 µM)
[2]
  MIC: 1.56 µg/mL (≈ 2.31 µM)
Mycolicibacterium vaccae
  MIC: 50 µg/mL (≈ 74.1 µM)
[3]
  MIC: 6.25 µg/mL (≈ 9.26 µM)
[4]
  MIC: 0.2 µg/mL (≈ 0.296 µM)
Mycolicibacterium phlei
  MIC: 12.5 µg/mL (≈ 18.5 µM)
[5]
  MIC: 1.56 µg/mL (≈ 2.31 µM)
Bacillus subtilis
  MIC: 3.13 µg/mL (≈ 4.64 µM)
Staphylococcus aureus [6]
  MIC: 25 µg/mL (≈ 37.1 µM)
Streptococcus pneumoniae
  MIC: 50 µg/mL (≈ 74.1 µM)
[7]
  MIC: 1.56 µg/mL (≈ 2.31 µM)
Staphylococcus aureus [8]
  MIC: 100 µg/mL (≈ 148 µM)
Staphylococcus aureus [9]
  MIC: 100 µg/mL (≈ 148 µM)
Escherichia coli
  MIC: > 100 µg/mL

## CCCCCCCCCCCCCCNC(=O)C1=CCN(C)[C@@H]([C@H](O[C@@H]2O[C@H](CN)[C@@H](O)[C@H]2O)[C@H]2O[C@@H](n3ccc(=O)[nH]c3=O)[C@H](O)[C@@H]2O)C(=O)N1C
[1]
  MIC: 0.39 µg/mL (≈ 0.518 µM)
[2]
  MIC: 1.56 µg/mL (≈ 2.07 µM)
Mycolicibacterium vaccae
  MIC: 1.56 µg/mL (≈ 2.07 µM)
[3]
  MIC: 1.56 µg/mL (≈ 2.07 µM)
[4]
  MIC: 0.39 µg/mL (≈ 0.518 µM)
Mycolicibacterium phlei
  MIC: 0.78 µg/mL (≈ 1.04 µM)
[5]
  MIC: 3.13 µg/mL (≈ 4.16 µM)
Bacillus subtilis
  MIC: 0.2 µg/mL (≈ 0.266 µM)
Staphylococcus aureus [6]
  MIC: 3.13 µg/mL (≈ 4.16 µM)
Streptococcus pneumoniae
  MIC: 12.5 µg/mL (≈ 16.6 µM)
[7]
  MIC: 1.56 µg/mL (≈ 2.07 µM)
Staphylococcus aureus [8]
  MIC: 3.13 µg/mL (≈ 4.16 µM)
Staphylococcus aureus [9]
  MIC: 6.25 µg/mL (≈ 8.3 µM)
Escherichia coli
  MIC: > 100 µg/mL

## CCCCCCCCCNC(=O)C1=CCN(C)[C@@H]([C@H](O[C@@H]2O[C@H](CN)[C@@H](O)[C@H]2O)[C@H]2O[C@@H](n3ccc(=O)[nH]c3=O)[C@H](O)[C@@H]2O)C(=O)N1C
[1]
  MIC: 0.2 µg/mL (≈ 0.293 µM)
[2]
  MIC: 0.78 µg/mL (≈ 1.14 µM)
Mycolicibacterium vaccae
  MIC: 12.5 µg/mL (≈ 18.3 µM)
[3]
  MIC: 0.78 µg/mL (≈ 1.14 µM)
[4]
  MIC: 0.2 µg/mL (≈ 0.293 µM)
Mycolicibacterium phlei
  MIC: 3.13 µg/mL (≈ 4.58 µM)
[5]
  MIC: 1.56 µg/mL (≈ 2.28 µM)
Bacillus subtilis
  MIC: 1.56 µg/mL (≈ 2.28 µM)
Staphylococcus aureus [6]
  MIC: 6.25 µg/mL (≈ 9.15 µM)
Streptococcus pneumoniae
  MIC: > 100 µg/mL
[7]
  MIC: 1.56 µg/mL (≈ 2.28 µM)
Staphylococcus aureus [8]
  MIC: 50 µg/mL (≈ 73.2 µM)
Staphylococcus aureus [9]
  MIC: 50 µg/mL (≈ 73.2 µM)
Escherichia coli
  MIC: > 100 µg/mL

## CCCCCCCCCCCCCCCCCCNC(=O)C1=CCN(C)[C@@H]([C@H](O[C@@H]2O[C@H](CN)[C@@H](O)[C@H]2O)[C@H]2O[C@@H](n3ccc(=O)[nH]c3=O)[C@H](O)[C@@H]2O)C(=O)N1C
[1]
  MIC: 0.39 µg/mL (≈ 0.482 µM)
[2]
  MIC: 1.56 µg/mL (≈ 1.93 µM)
Mycolicibacterium vaccae
  MIC: 3.13 µg/mL (≈ 3.87 µM)
[3]
  MIC: 6.25 µg/mL (≈ 7.73 µM)
[4]
  MIC: 0.78 µg/mL (≈ 0.964 µM)
Mycolicibacterium phlei
  MIC: 3.13 µg/mL (≈ 3.87 µM)
[5]
  MIC: 0.78 µg/mL (≈ 0.964 µM)
Bacillus subtilis
  MIC: < 0.2 µg/mL
Staphylococcus aureus [6]
  MIC: 6.25 µg/mL (≈ 7.73 µM)
Streptococcus pneumoniae
  MIC: > 100 µg/mL
[7]
  MIC: 1.56 µg/mL (≈ 1.93 µM)
Staphylococcus aureus [8]
  MIC: 6.25 µg/mL (≈ 7.73 µM)
Staphylococcus aureus [9]
  MIC: 6.25 µg/mL (≈ 7.73 µM)
Escherichia coli
  MIC: > 100 µg/mL

## CCCCCCCCCCCCCCCC(=O)OC[C@@H]1[C@H](C(N)=O)[C@@H]([C@H]2O[C@@H](n3ccc(=O)[nH]c3=O)[C@H](O)[C@@H]2O)ON1CCCN
Haemophilus influenzae
  MIC: 0.25 µg/mL (≈ 0.382 µM)
Enterococcus faecalis [10]
  MIC: 8 µg/mL (≈ 12.2 µM)
Enterococcus faecalis [11]
  MIC: 16 µg/mL (≈ 24.5 µM)
